In patent US10711007B2, “Selective inhibitors of protein arginine methyltransferase 5 (PRMT5)” (Prelude Therapeutics, Incorporated, priority 2018, dated 2020):

How the values were obtained:
[1] = molecular target: PRMT5/MEP50 complex (Homo sapiens (Human), UniProt O14744); test: Biochemical assay: PRMT5/MEP50 methylation of histone H4 based AcH4-23, SPA readout; conditions: PRMT5/MEP50 2.5 nM, 300 nM AcH4-23, 1 μM 3H-SAM
Experimental: Biochemical Assay Protocol
Compounds were solubilized and 3-fold diluted in 100% DMSO. […] Standard reactions were performed in a total volume of 30 μl in assay buffer, with 300 nM histone H4 based AcH4-23 (Anaspec: AS-65002) as substrate. To this was added the PRMT5/MEP50 complex diluted to provide a final assay concentration of 2.5 nM and the compounds were allowed to preincubate for 20 minutes at 37° C. The reaction was initiated by adding S-[3H-methyl]-adenosyl-L-methionine (PerkinElmer: NET155001MC) to final concentration of 1 μM. Following a 30 minutes incubation at 37° C., the reaction was stopped by adding 25 μL of 8M Guanidine HCl. Prepare streptavidin YSI SPA beads (Perkinelmer: RPNQ0012) at 0.3 mg/mL in assay buffer. To each reaction, add 150 μL of SPA beads suspension, and incubated while shaking at room temperature for 30 minutes. The plate was centrifuged at 100×g for 30 second before reading in a scintillation counter. IC50 values were determined by fitting the data to the standard 4 parameters with Hill Slope using GraphPad Prism software.

[2] = test system: sDMA marks (SmD3me2s) in Granta-519 cells; test: Western blotting for symmetric di-methyl arginine (sDMA) marks in Granta-519 cells; assay type: cell-based; conditions: Homo sapiens, 72 h; Granta-519 cell line (value in brackets), 3 days
Experimental: (§1) Cell Treatment and Western Blotting for Detecting Symmetric Di-Methyl Arginine (sDMA) Marks
(§2) Compound Titration and Cell Culture:
(§3) Compounds were dissolved in DMSO to make 10 mM stock and 3-fold series dilutions were further conducted to make working stocks top at 1 mM. Granta-519 cells were maintained in PRMI 1640 (Corning Cellgro, Catalog #: 10-040-CV) supplemented with 10% v/v FBS (GE Healthcare, Catalog #: SH30910.03) and U-87 MG cells were maintained in DMEM (Corning Cellgro, Catalog #: 10-013-CV) with 10% FBS and 2 mM Glutamin (Corning Cellgro, Catalog #25005CV).
To determine enzyme inhibition IC50 values in Granta-519 and U-87 MG cells using Western Blot analysis. One day before experiment, Granta-519 cells were passaged to a density of 0.5×10^6 cells/ml. U-87 MG cells were trypsinized and 4×10^5 cells were seeded into 6-well plates and allow to grow overnight. […]
Cells were harvested 3 days later, resuspended in 15 uL PBS, lysed in 4% SDS, and homogenized by passing through homogenizer column (Omega Biotek, Catalog #: HCR003). Total protein concentrations were determined by BCA assay (ThermoFisher Scientific, Catalog #: 23225). […] SmD3me2s bands were quantified by ImageJ. […] IC50 values were calculated using Graphpad Prism ([Inhibitor] vs. normalized response-Variable slope).

[3] = test system: U-87 MG cells; test: Cell proliferation assay (CCK-8, day 10) in U-87 MG cells; assay type: cell-based; conditions: Homo sapiens, 240 h, U-87 MG cell line, read-out: Prolif. IC50
Experimental: Cell Proliferation Assay to Determine IC50 in Granta-519 and U-87 MG Cells
One day before experiment, Granta-519 cells were passaged to a density of 0.5×10^6 cells/ml. U-87 MG cells were trypsinized and 2,000 cells were seeded into 96-well plates and allow to grow overnight. On the day of experiment (day 0), Granta-519 Cells were spun down at 1,500 rpm for 4 min, resuspended in fresh medium to 0.5×10^6 cells/ml and 190 ul of cells were added to 96 well plates. For U-87 MG cells, old medium was removed and replaced with 190 uL fresh medium. Compound working stocks were first diluted at 1:50 with fresh medium in 96 well plate and 10 μL of diluted drugs were added to 96 well plates containing cells and incubated for 3 days. DMSO was used a vehicle control.
One day 3, 50 uL of Granta-519 cells were transferred to a new 96-well plate and 140 uL fresh medium was added. For U-87 MG cells, old medium was removed and replaced with 190 uL fresh medium. Compound working stocks were freshly diluted at 1:50 with medium and 10 μL of diluted drugs were added to cells and grow for 3additional days. The same process was repeated on day 6. Cells were allowed to grow for additional 4 days.
On day 10, 100 uL Granta-519 cells were transferred to a new 96 well plate and 10 μL of Cell Counting Kit-8 (CCK-8, Jojindo, CK04-13) solution was added. For U-87 MG cells, old medium was removed and replaced with 100 uL fresh medium and 10 uL CCK-8 solution was added. Plates were incubated in CO2 incubator for 2 hours (Granta-519 cells) or 30 min (U-87 MG cells) and OD450 values were measured with a microplate reader (iMark microplate reader, Bio-Rad). Percentage of viable cells, relative to DMSO vehicle control, were calculated and plotted in Graphpad Prism ([Inhibitor] vs. normalized response-Variable slope) to determine proliferation IC50 values on day 10.

[4] = test system: sDMA marks (SmD3me2s) in U-87 MG cells; test: Western blotting for symmetric di-methyl arginine (sDMA) marks in U-87 MG cells; assay type: cell-based; conditions: Homo sapiens, 72 h; U-87 MG cell line, 3 days
Experimental: as §1, §2, §3
To determine enzyme inhibition IC50 values in Granta-519 and U-87 MG cells using Western Blot analysis. One day before experiment, Granta-519 cells were passaged to a density of 0.5×10^6 cells/ml. U-87 MG cells were trypsinized and 4×10^5 cells were seeded into 6-well plates and allow to grow overnight. The next day, Granta-519 cells were spun down at 1,500 rpm for 4 min, resuspend in fresh medium at 0.5×10^6 cells/ml and 3 mL of culture (1.5×10^6 cells) were seeded into 6 well plate. Eight-point, 3-fold serial dilutions of compound working stocks were added to cells (3 ul, 1:1,000 dilution, DMSO concentration was 0.1%; final top concentration at 1 uM) and incubated for 3 days. Cells incubated with DMSO was used as a vehicle control.
Cells were harvested 3 days later, resuspended in 15 uL PBS, lysed in 4% SDS, and homogenized by passing through homogenizer column (Omega Biotek, Catalog #: HCR003). Total protein concentrations were determined by BCA assay (ThermoFisher Scientific, Catalog #: 23225). Lysates were mixed with 5× Laemmli buffer and boiled for 5 min. Forty ug of total protein was separated on SDS-PAGE gels (Bio-Rad, catalog #: 4568083, 4568043), transferred to PVDF membrane, blocked with 5% dry milk (Bio-Rad, Catalog #: 1706404) in TBS with 0.1% v/v Tween 20 (TBST) for 1 hour at room temperature (RT), and incubated with primary antibodies (sDMA: Cell signaling, Catalog #: 13222, 1:3,000; β-Actin: sigma, Catalog #: 1:5,000) in 5% dry milk in TBST at 4° C. overnight. The next day, membranes were washed with TBST, 5×5 min, and incubated with HRP conjugated seconded antibody (GE Healthcare; Catalog #: NA934-1ML, NA931-1ML; 1:5,000) for 2 hours at RT, followed by 5×5 min washes with TBST, and incubation with ECL substrates (Bio-Rad, Catalog #: 1705061, 1705062). Chemiluminescent signal was captured with Fluochem HD2 imager (Proteinsimple). SmD3me2s bands were quantified by ImageJ. Signals were normalized to β-Actin and DMSO control. IC50 values were calculated using Graphpad Prism ([Inhibitor] vs. normalized response-Variable slope).

Sequence of PRMT5/MEP50 complex (O14744 whole entry): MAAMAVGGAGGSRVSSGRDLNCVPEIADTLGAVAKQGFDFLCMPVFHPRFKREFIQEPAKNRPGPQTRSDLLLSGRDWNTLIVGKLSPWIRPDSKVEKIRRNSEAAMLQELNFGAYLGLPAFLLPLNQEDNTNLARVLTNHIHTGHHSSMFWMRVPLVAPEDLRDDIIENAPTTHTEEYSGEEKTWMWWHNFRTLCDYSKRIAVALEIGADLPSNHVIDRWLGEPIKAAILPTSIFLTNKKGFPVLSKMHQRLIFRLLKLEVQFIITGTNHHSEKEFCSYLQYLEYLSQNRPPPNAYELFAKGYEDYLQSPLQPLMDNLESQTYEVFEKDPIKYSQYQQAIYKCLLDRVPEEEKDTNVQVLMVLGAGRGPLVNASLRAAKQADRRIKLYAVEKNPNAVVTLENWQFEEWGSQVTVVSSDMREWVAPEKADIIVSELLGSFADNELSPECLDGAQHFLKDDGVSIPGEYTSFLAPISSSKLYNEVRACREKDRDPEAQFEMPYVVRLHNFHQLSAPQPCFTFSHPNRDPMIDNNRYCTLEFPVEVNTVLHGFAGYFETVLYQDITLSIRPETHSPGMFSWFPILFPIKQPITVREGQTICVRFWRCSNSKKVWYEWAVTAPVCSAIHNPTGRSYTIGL
Sequence of PRMT5/MEP50 complex (Q9BQA1 whole entry partner): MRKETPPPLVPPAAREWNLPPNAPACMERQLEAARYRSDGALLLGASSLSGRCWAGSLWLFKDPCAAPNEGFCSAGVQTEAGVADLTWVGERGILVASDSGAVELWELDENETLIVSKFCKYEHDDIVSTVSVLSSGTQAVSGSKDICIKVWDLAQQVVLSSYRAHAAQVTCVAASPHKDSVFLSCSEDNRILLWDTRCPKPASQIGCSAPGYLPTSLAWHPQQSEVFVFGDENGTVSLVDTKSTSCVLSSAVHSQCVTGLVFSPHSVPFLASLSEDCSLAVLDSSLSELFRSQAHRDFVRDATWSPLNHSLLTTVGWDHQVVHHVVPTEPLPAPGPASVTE

Compound | IC50 [1] | IC50 [2] | IC50 [3] | IC50 [4]
Nc1ncnc2c1ccn2[C@@H]1C[C@H]([C@@H]2OC(=O)c3cc(Cl)ccc32)[C@@H](O)[C@H]1O [Example 3A, (S)-3-((1S,2R,3S,4R)-4-(4-amino-7H-pyrrolo[2,3-d]pyrimidin-7-yl)-2,3-dihydroxycyclopentyl)-6-chloroisobenzofuran-1(3H)-one] | 21 nM | 1620 nM |  | 
Nc1ncnc2c1ccn2[C@@H]1O[C@H]([C@@H]2OC[C@H](F)c3cc(Cl)ccc32)[C@@H](O)[C@H]1O [Example 95, (2R,3R,4S,5S)-2-(4-amino-7H-pyrrolo[2,3-d]pyrimidin-7-yl)-5-((1R,4R)-6-chloro-4-fluoroisochroman-1-yl)tetrahydrofuran-3,4-diol] | 1.6 nM |  | 18.5 nM | 11.1 nM
Nc1ncnc2c1ccn2[C@@H]1O[C@H]([C@@H]2OCc3cc(Cl)ccc32)[C@@H](O)[C@H]1O [Example 1A, (2R,3R,4S,5S)-2-(4-amino-7H-pyrrolo[2,3-d]pyrimidin-7-yl)-5-((R)-5-chloro-1,3-dihydroisobenzofuran-1-yl)tetrahydrofuran-3,4-diol] | 3.8 nM | 27 nM | 142 nM | 120 nM
Nc1ncnc2c1c(F)cn2[C@@H]1O[C@H]([C@@H]2OCCc3cc(Cl)ccc32)[C@@H](O)[C@H]1O [Example 86, (2R,3R,4S,5S)-2-(4-amino-5-fluoro-7H-pyrrolo[2,3-d]pyrimidin-7-yl)-5-((R)-6-chloroisochroman-1-yl)tetrahydrofuran-3,4-diol] | 2 nM |  | 13 nM | 5.4 nM
Nc1ncnc2c1ccn2[C@@H]1O[C@H]([C@@H]2OCCc3ccc(Cl)cc32)[C@@H](O)[C@H]1O [Example 71, (2R,3R,4S,5S)-2-(4-amino-7H-pyrrolo[2,3-d]pyrimidin-7-yl)-5-((R)-7-chloroisochroman-1-yl)tetrahydrofuran-3,4-diol] | 6.2 nM |  | 73 nM | 29.7 nM
Cc1ncnc2c1ccn2[C@@H]1O[C@H]([C@@H]2OCOc3c2ccc(F)c3F)[C@@H](O)[C@H]1O [Example 97, (2S,3S,4R,5R)-2-((R)-7,8-difluoro-4H-benzo[d][1,3]dioxin-4-yl)-5-(4-methyl-7H-pyrrolo[2,3-d]pyrimidin-7-yl)tetrahydrofuran-3,4-diol] | 4.7 nM |  | 117 nM | 51.7 nM
Cc1ncnc2c1ccn2[C@@H]1O[C@H]([C@@H]2OCOCc3cc(Cl)ccc32)[C@@H](O)[C@H]1O [Example 55, (2S,3S,4R,5R)-2-((R)-7-chloro-1,5-dihydrobenzo[e][1,3]dioxepin-1-yl)-5-(4-methyl-7H-pyrrolo[2,3-d]pyrimidin-7-yl)tetrahydrofuran-3,4-diol] | 11.7 nM |  | 10000 nM | 4580 nM
Nc1ncnc2c1ccn2[C@@H]1O[C@H]([C@@H]2OCCc3cc(Cl)c(Cl)cc32)[C@@H](O)[C@H]1O [Example 88, (2R,3R,4S,5S)-2-(4-amino-7H-pyrrolo[2,3-d]pyrimidin-7-yl)-5-((R)-6,7-dichloroisochroman-1-yl)tetrahydrofuran-3,4-diol] | 1.6 nM |  | 60 nM | 18.5 nM
Cc1ncnc2c1ccn2[C@@H]1O[C@H]([C@@H]2OCCc3ccc(Cl)cc32)[C@@H](O)[C@H]1O [Example 70, (2S,3S,4R,5R)-2-((R)-7-chloroisochroman-1-yl)-5-(4-methyl-7H-pyrrolo[2,3-d]pyrimidin-7-yl)tetrahydrofuran-3,4-diol] | 303 nM |  | 458 nM | 382 nM
Nc1ncnc2c1ccn2[C@@H]1O[C@H]([C@@H]2OCc3cc(F)c(F)cc32)[C@@H](O)[C@H]1O [Example 4, (2R,3R,4S,5S)-2-(4-amino-7H-pyrrolo[2,3-d]pyrimidin-7-yl)-5-((R)-5,6-difluoro-1,3-dihydroisobenzofuran-1-yl)tetrahydrofuran-3,4-diol] | 1.5 nM |  | 95 nM | 31 nM
